Reference: US8361968B2 (Takeda Pharmaceutical Company Limited, priority 2002, dated 2013)
Square brackets hold non-standard residues; d marks the D form. Peptide text beside a SMILES is read from it. * marks the point of attachment. Propanoyl(3-(3-pyridyl)) = O=C(CCc1cccnc1)*; Arg(Me) = CNC(=N)NCCC[C@H](N)C(=O)O; d4Pal = N[C@H](Cc1ccncc1)C(=O)O; azaGly = NNC(=O)O

Experiments:
immature rat = assay: Induction of ovulation in immature rat using metastin derivatives; assay type: in vivo, rats; conditions: for number of oocytes in average per rat / dose to be administered for induction of ovulation equivalent to hCG: eCG-primed immature female rats; for dose to be administered for induction of ovulation equivalent to hCG: s.c.
Procedure: Equine chorionic gonadotropin (eCG, serotropin, Dainippon Pharmaceutical Co., Ltd.) was dissolved in saline (Otsuka Pharmaceutical Co., Ltd.) in a concentration of 100 IU/mL. Using a 1 mL tuberculin syringe with a 26-gauge needle (both by Terumo Co., Ltd.), eCG was subcutaneously injected into the dorsal area of female Wistar rats of 23 days old after birth (Charles River Japan, Inc.) in a dose of 10 IU/animal, during 9:00 to 10:00 AM. As shown below, the animal was grouped 47 to 48 hours after the eCG injection and the drugs were given to these groups, respectively.
Group B (5 rats): Compound No. 305 was dissolved in saline at 33.3 nmol/mL and the solution was subcutaneously injected into the back in a dose of 6.7 nmol/animal.
Group C (5 rats): Compound No. 305 was dissolved in saline at 10.0 nmol/mL and the solution was subcutaneously injected into the back in a dose of 2.0 nmol/animal.
Group D (5 rats): Compound No. 322 was dissolved in saline at 33.3 nmol/mL and the solution was subcutaneously injected into the back in a dose of 6.7 nmol/animal.
Group E (5 rats): Compound No. 322 was dissolved in saline at 10.0 nmol/mL and the solution was subcutaneously injected into the back in a dose of 2.0 nmol/animal.
Group F (6 rats): Saline was subcutaneously injected into the back in a dose of 200 μL/animal.
After administration of these drugs, the animal was sacrificed by decapitation after 24 to 25 hours to recover blood, bilateral oviducts and uterus. In collecting the blood, 90 μL of 10 KIU/mL aprotinin solution (Trasylol, Bayer) containing 3 mg/ml EDTA had been previously filled in a tube for recovery to prevent blood clotting. After blood recovery, the blood was thoroughly blended and the mixture was centrifuged at 2,000 G for 25 minutes. The supernatant was recovered and used as a plasma sample.
The number of oocytes was counted by referring to the method described in Eur. J. Endocrinol., 138, 594-600 (1998). That is, where retained oocytes in the oviducal ampulla were confirmed by stereomicroscopic observation of the oviduct, the ampulla was punctured with a 27-gauge syringe needle (Terumo) to retrieve the oocytes. After granulosa cells surrounding the oocytes were removed by trypsin treatment, the number of oocytes was counted. Where the retained oocytes in the oviducal ampulla were not confirmed by stereomicroscopic observation of the oviduct, a 27-gauge syringe needle with the polished tip was inserted into the tubal ostium and more than 400 μL of saline was flushed into the oviduct and uterine for rinsing. Then, the presence or absence of oocytes in the effluent was observed.

hOT7T175 = hOT7T175 (Homo sapiens, UniProt Q969F8, L364H); assay: Intracellular Ca ion level-increasing activity using FLIPR in hOT7T175/CHO; assay type: cell-based; set-up: expressed in transfected cells; host or cells: CHO/dhfr- cells, obtained from ATCC; conditions: relative, Metastin (1-54) = 1
Chain of hOT7T175 (Q969F8 whole entry L364H): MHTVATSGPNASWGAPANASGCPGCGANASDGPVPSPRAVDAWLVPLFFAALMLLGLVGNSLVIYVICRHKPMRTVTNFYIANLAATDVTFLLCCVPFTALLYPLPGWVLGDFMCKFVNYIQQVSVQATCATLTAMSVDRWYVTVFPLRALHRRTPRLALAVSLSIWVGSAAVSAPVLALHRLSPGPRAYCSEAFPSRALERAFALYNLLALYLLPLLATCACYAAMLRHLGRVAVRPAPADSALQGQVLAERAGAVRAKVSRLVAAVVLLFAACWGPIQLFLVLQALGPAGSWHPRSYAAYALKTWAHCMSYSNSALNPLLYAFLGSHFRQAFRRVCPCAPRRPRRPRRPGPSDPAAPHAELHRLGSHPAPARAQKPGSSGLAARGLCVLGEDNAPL

SMILES	rats ovulated (immature rat; 2.0 nmol/animal s.c.)	level of estradiol contained in plasma (immature rat; 2.0 nmol/animal s.c. (FIG. 21))	level of progesterone in blood (immature rat; 2.0 nmol/animal s.c. (FIG. 22))	level of estradiol contained in plasma (immature rat; 6.7 nmol/animal s.c. (FIG. 21))	level of progesterone in blood (immature rat; 6.7 nmol/animal s.c. (FIG. 22))	number of oocytes in average per rat (immature rat; 2.0 nmol/animal s.c.) [oocytes]	number of oocytes in average per rat (immature rat; 6.7 nmol/animal s.c.) [oocytes]	dose to be administered for induction of ovulation equivalent to hCG (immature rat)	Specific Activity (intracellular Ca ion level-increasing activity) (hOT7T175)
CNC(=N)NCCC[C@H](NC(=O)[C@H](CC(C)C)NC(=O)NNC(=O)[C@H](Cc1ccccc1)NC(=O)[C@H](CO)NC(=O)[C@H](CC(N)=O)NC(=O)CCc1cccnc1)C(=O)N[C@@H](Cc1ccccc1)C(N)=O [Compound No. 322, 3-Pyridylpropionyl-Asn-Ser-Phe-AzaGly-Leu-Arg(Me)-Phe-NH2] ({Propanoyl(3-(3-pyridyl))}-NSF[azaGly]L[Arg(Me)]F-NH2)	3 out of 5	tendency to show a higher level in rats with no ovulation induction	very low level	no difference	less than a half of the level in Group A	11.6	29.6	at least 6.7 nmol/animal	1
CNC(=N)NCCC[C@H](NC(=O)[C@H](CC(C)C)NC(=O)NNC(=O)[C@H](Cc1ccccc1)NC(=O)[C@H](CO)NC(=O)[C@H](CC(N)=O)NC(=O)[C@@H](Cc1ccncc1)NC(=O)[C@H](N)Cc1ccc(O)cc1)C(=O)N[C@@H](Cc1ccccc1)C(N)=O [Compound No. 305, D-Tyr-D-Pya(4)-Asn-Ser-Phe-AzaGly-Leu-Arg(Me)-Phe-NH2] (H-[dY][d4Pal]NSF[azaGly]L[Arg(Me)]F-NH2)	–	no difference	less than a half of the level in Group A	no difference	less than a half of the level in Group A	29.4	32.6	at least 2.0 nmol/animal	5
